Where two headings read alike, the source gives them in different places. Each block holds one compound with its values, some of them ahead of it.
What was measured:
[1] = test system: A549; experiment: Cell-based assay, anti-proliferative activity (Cell Counting Kit-8, 72 hours); settings: Homo sapiens, A549 cells
Method in brief: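 Cells were seeded in 96-well plates and exposed to candidate inhibitors. Cellular growth was then determined with the colorimetric kit, and IC50 values were calculated from the growth data.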

[2] = target: T1, SUV39H2 (Homo sapiens (Human), UniProt Q9H5I1); experiment: biochemical; type: biochemical; settings: 3H-SAM 100 nM, H3 Histone Peptide 350 nM, room temperature 3 hours
Procedure: Assay buffer (4 μL) was added into all the wells, including test compound and control wells (except for Sinefungin control wells), using the Multidrop Combi. The plate was centrifuged at 1000 rpm for 1 min. […] SUV39H2 (8 μL, final conc: optimized for each lot of the enzyme based on specific activity) was added by using the Multidrop Combi. The assay plate was centrifuged at 1000 rpm for 1 min. Assay buffer was used as background control, and incubated at room temperature for 3 hours. The reaction was stopped with 20 μL of 2.5 mg/mL Streptavidin SPA beads (final conc. 50 μg/well) in buffer using the Multidrop Combi and centrifuged for 1 min. The plate was loaded into the Trilux-Microbeta counter and a delayed read of 10 hours was made. The radioactive signal was measured at 1 min/well. Sinefungin and the internal standard compound were used as tool compounds to determine assay performance.
• The following calculations were made using the obtained CPM raw data: Software used: XLFit from IDBS.
For each test plate the following results were calculated: • Average, Standard Deviation, and % CV of Background Controls • Average, Standard Deviation, and % CV of Positive Controls • Z′ value of the plate • IC50 values of standard and test compounds (in nM) • R^2 value of fitted concentration response curve • Hill slope coefficient of fitted concentration response curve • Signal to Noise Ratio

[3] = target: T1, SUV39H2; settings: read-out: IC50 (μM) Suv 39H2 assay; enzyme assay
[4] = test system: HFL1; experiment: Cell-based assay, anti-proliferative activity (Cell Counting Kit-8, 72 hours); settings: Homo sapiens, read-out: IC50 (μM) HFL1
Method in brief: (§1)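 Cells seeded at 2,000–3,000 per well and exposed 72 h to compound at 0–100 micro-M (2-fold series). Growth measured with CCK-8; IC50 taken as anti-proliferative indicator.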

[5] = test system: CCD-18Co; experiment: as above; settings: Homo sapiens, read-out: IC50 (μM) CCD-18Co
Method in brief: as §1

[6] = test system: PC14; experiment: as above; settings: Homo sapiens, read-out: IC50 (μM) PC14
Method in brief: as §1

[7] = test system: HCT-116; experiment: as above; settings: Homo sapiens, read-out: IC50 (μM) HCT-116
Method in brief: as §1

[8] = 72 hours exposure, Cell Counting Kit-8, read-out: A549 IC50
[9] = 72 hours, Cell Counting Kit-8, read-out: IC50 (μM) A549
[10] = HFL1 cells, 72 hours, Cell Counting Kit-8
[11] = CCD-18Co cells, 72 hours, Cell Counting Kit-8
[12] = PC-14, PC14 cells, 72 hours, Cell Counting Kit-8
[13] = HCT-116 cells, 72 hours, Cell Counting Kit-8
[14] = Cell Counting Kit-8, 72 hours, read-out: IC50 (μM) A549
[15] = HFL1 cells, Cell Counting Kit-8, 72 hours
[16] = CCD-18Co cells, Cell Counting Kit-8, 72 hours
[17] = PC-14, PC14 cells, Cell Counting Kit-8, 72 hours
[18] = HCT-116 cells, Cell Counting Kit-8, 72 hours

T1 sequence (Q9H5I1 whole entry): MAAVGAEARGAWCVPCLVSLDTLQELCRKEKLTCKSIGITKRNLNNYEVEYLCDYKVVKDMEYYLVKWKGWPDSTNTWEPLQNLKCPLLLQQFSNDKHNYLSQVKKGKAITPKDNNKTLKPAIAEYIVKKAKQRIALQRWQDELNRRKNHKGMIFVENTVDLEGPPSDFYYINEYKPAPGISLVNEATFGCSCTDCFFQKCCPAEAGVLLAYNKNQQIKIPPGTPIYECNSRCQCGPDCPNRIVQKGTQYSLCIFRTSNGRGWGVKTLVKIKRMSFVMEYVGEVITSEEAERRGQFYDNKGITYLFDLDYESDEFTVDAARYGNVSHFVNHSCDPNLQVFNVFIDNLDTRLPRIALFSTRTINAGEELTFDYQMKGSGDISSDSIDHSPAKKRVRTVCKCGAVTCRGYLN

Structure (SMILES): COc1ccc(CN[C@H]2CC[C@@H](Nc3ccn4cc(-c5cc(Cl)c(OC)cc5OC)nc4c3)CC2)cc1 [Example 380, cis-N^1-(2-(5-chloro-2,4-dimethoxyphenyl)imidazo[1,2-a]pyridin-7-yl)-N^4-(4-methoxybenzyl)cyclohexane-1,4-diamine bis(2,2,2-trifluoroacetate)]
IC50 [1, 8]: 0.6 µM
IC50 [2]: 33.3 nM

Structure (SMILES): COc1cc(OC)c(-c2cn3ccc(N[C@H]4CC[C@H](NCc5ccccc5F)CC4)cc3n2)cc1Cl [Example 414, (1r,4r)-N^1-(2-(5-chloro-2,4-dimethoxyphenyl)imidazo[1,2-a]pyridin-7-yl)-N^4-(2-fluorobenzyl)cyclohexane-1,4-diamine]
IC50 [1, 8]: 0.82 µM
IC50 [2]: 84.8 nM

Structure (SMILES): COc1cc(OC)c(-c2cn3ccc(N4CCN(c5ccnc(NCCO)n5)CC4)cc3n2)cc1Cl [Example 334, 2-((4-(4-(2-(5-chloro-2,4-dimethoxyphenyl)imidazo[1,2-a]pyridin-7-yl)piperazin-1-yl)pyrimidin-2-yl)amino)ethanol]
IC50 [2]: 21.3 nM

IC50 [2]: 35.7 nM
Structure (SMILES): COc1cc(OC)c(-c2cn3ccc(N4CCN(Cc5cncc(C#N)c5)CC4)cc3n2)cc1Cl [Example 339, 5-((4-(2-(5-chloro-2,4-dimethoxyphenyl)imidazo[1,2-a]pyridin-7-yl)piperazin-1-yl)methyl)nicotinonitrile]

Structure (SMILES): COc1cc(OC)c(-c2cn3ccc(N[C@H]4C[C@H]5CC[C@@H](C4)N5CC4CCCCC4)cc3n2)cc1Cl [Example 434, 2-(5-chloro-2,4-dimethoxyphenyl)-N-((1R,3r,5S)-8-(cyclohexylmethyl)-8-azabicyclo[3.2.1]octan-3-yl)imidazo[1,2-a]pyridin-7-amine]
IC50 [2]: 88.7 nM

Structure (SMILES): COc1cc(OC)c(-c2cn3ccc(N[C@H]4CC[C@@H](N(C)Cc5ccccc5F)CC4)cc3n2)cc1Cl [Example 347, bis(2,2,2-trifluoroacetate)]
IC50 [2]: 24.8 nM

Structure (SMILES): COc1cc(OC)c(-c2cn3ccc(N4CCN(c5cnc(N6CCC(NS(=O)(=O)C7CC7)CC6)nc5)CC4)cc3n2)cc1Cl [Example 393, N-(1-(5-(4-(2-(5-chloro-2,4-dimethoxyphenyl)imidazo[1,2-a]pyridin-7-yl)piperazin-1-yl)pyrimidin-2-yl)piperidin-4-yl)cyclopropanesulfonamide]
IC50 [2]: 28.3 nM

Structure (SMILES): COc1cc(OC)c(-c2cn3ccc(N[C@H]4CC[C@@H](N(C)Cc5ccc(F)cc5)CC4)cc3n2)cc1Cl [Example 342]
IC50 [2]: 38.8 nM

Structure (SMILES): COc1cc(C)c(Cl)cc1-c1cn2ccc(N3CCOCC3)cc2n1 [Example 230, 4-(2-(5-chloro-2-methoxy-4-methylphenyl)imidazo[1,2-a]pyridin-7-yl)morpholine]
IC50 [1, 9]: 4.4 µM
IC50 [3]: 0.0183 µM
IC50 [4, 10]: 2.8 µM
IC50 [5, 11]: 3.5 µM
IC50 [6, 12]: 1.6 µM
IC50 [7, 13]: 4 µM

Structure (SMILES): COc1cc(OC)c(-c2cn3ccc(N4CCC(CNS(=O)(=O)C5CC5)CC4)cc3n2)cc1Cl [Example 149, N-((1-(2-(5-Chloro-2,4-dimethoxyphenyl)imidazo[1,2-a]pyridin-7-yl)piperidin-4-yl)methyl)cyclopropanesulfonamide]
IC50 [1, 14]: 2.5 µM
IC50 [3]: 0.00672 µM
IC50 [4, 15]: 1.9 µM
IC50 [5, 16]: 4.8 µM
IC50 [6, 17]: 2.4 µM
IC50 [7, 18]: 2.3 µM

Structure (SMILES): COc1cc(OCCCN(C)C)c(-c2cn3ccc(N4CCCN(S(C)(=O)=O)CC4)cc3n2)cc1Cl [Example 213, 3-(4-chloro-2-(7-(4-(methylsulfonyl)-1,4-diazepan-1-yl)imidazo-[1,2-a]pyridin-2-yl)-5-methoxyphenoxy)-N,N-dimethylpropan-1-amine]
IC50 [1, 9]: 10 µM
IC50 [3]: 0.0145 µM
IC50 [4, 10]: 7.4 µM
IC50 [5, 11]: 10 µM
IC50 [6, 12]: 9.1 µM
IC50 [7, 13]: 5.5 µM

Structure (SMILES): COc1cc(OC)c(-c2cn3ccc(N[C@H]4CC[C@H](Nc5ccccn5)CC4)cc3n2)cc1Cl [Example 287, N^1-(2-(5-chloro-2,4-dimethoxyphenyl)imidazo[1,2-a]pyridin-7-yl)-N^4-(pyridin-2-yl)-trans-cyclohexane-1,4-diamine]
IC50 [1, 9]: 0.8 µM
IC50 [3]: 0.0327 µM
IC50 [4, 10]: 0.78 µM
IC50 [5, 11]: 0.81 µM
IC50 [6, 12]: 0.94 µM
IC50 [7, 13]: 0.91 µM

Structure (SMILES): COc1cc(OC)c(-c2cn3ccc(N[C@H]4CC[C@H](CN5CCN(Cc6ccccc6)CC5)CC4)cc3n2)cc1Cl [Example 278, trans-N-(4-((4-benzylpiperazin-1-yl)methyl)cyclohexyl)-2-(5-chloro-2,4-dimethoxyphenyl)imidazo[1,2-a]pyridin-7-amine 2,2,2-trifluoroacetate]
IC50 [1, 9]: 1.4 µM
IC50 [3]: 0.0707 µM
IC50 ([4]; HFL1, 72 h): 0.73 µM
IC50 ([5]; CCD-18Co, 72 h): 1.2 µM
IC50 ([6]; PC-14, 72 h): 1.3 µM
IC50 ([7]; HCT-116, 72 h): 0.84 µM

Structure (SMILES): CCCS(=O)(=O)N1CCN(c2ccn3cc(-c4cc(Cl)c(OC)cc4OC)nc3n2)CC1 [Example 191, 2-(5-chloro-2,4-dimethoxyphenyl)-7-[4-(propylsulfonyl)piperazin-1-yl]-imidazo[1,2-a]pyrimidine]
IC50 [1, 14]: 1.5 µM
IC50 [3]: 0.0293 µM
IC50 [4, 15]: 2 µM
IC50 [5, 16]: 3.2 µM
IC50 [6, 17]: 1.5 µM
IC50 [7, 18]: 1.9 µM

Structure (SMILES): COc1cc(OC)c(-c2cn3ccc(N[C@H]4CC[C@H](CN5CCN(S(C)(=O)=O)CC5)CC4)cc3n2)cc1Cl [Example 289, 2-(5-chloro-2,4-dimethoxyphenyl)-trans-N-(4-((4-(methylsulfonyl)piperazin-1-yl)methyl)cyclohexyl)imidazo-[1,2-a]pyridin-7-amine]
IC50 [1, 9]: 0.63 µM
IC50 [3]: 0.028 µM
IC50 [4, 10]: 0.74 µM
IC50 [5, 11]: 0.72 µM
IC50 [6, 12]: 0.77 µM
IC50 [7, 13]: 0.83 µM

Structure (SMILES): CCOP(=O)(CCN1CCN(c2ccn3cc(-c4cc(Cl)c(OC)cc4OC)nc3c2)CC1)OCC [Example 202, diethyl (2-(4-(2-(5-chloro-2,4-dimethoxyphenyl)imidazo[1,2-a]pyridin-7-yl)piperazin-1-yl)ethyl)phosphonate]
IC50 [1, 14]: 10 µM
IC50 [3]: 0.0064 µM
IC50 [4, 15]: 7.2 µM
IC50 [5, 16]: 5.6 µM
IC50 [6, 17]: 8 µM
IC50 [7, 18]: 10 µM

Structure (SMILES): COc1cc(OC)c(-c2cn3ccc(NC(=O)CCN)cc3n2)cc1Cl [Example 168, 3-amino-N-[2-(5-chloro-2,4-dimethoxyphenyl)imidazo[1,2-a]pyridin-7-yl]-propanamide]
IC50 [1, 14]: 39 µM
IC50 [3]: 0.0283 µM
IC50 [4, 15]: 2.7 µM
IC50 [5, 16]: 9.5 µM
IC50 [6, 17]: 6.2 µM
IC50 [7, 18]: 1.4 µM

Structure (SMILES): COc1cc(OC)c(-c2cn3ccc(N4CCN(C(=O)C5CCCC5)CC4)cc3n2)cc1Cl [Example 241, (4-(2-(5-chloro-2,4-dimethoxyphenyl)imidazo[1,2-a]pyridine-7-yl)piperazin-1-yl)(cyclopentyl)methanone]
IC50 [1, 9]: 2.3 µM
IC50 [3]: 0.00768 µM
IC50 [4, 10]: 1.5 µM
IC50 [5, 11]: 2.5 µM
IC50 [6, 12]: 1.6 µM
IC50 [7, 13]: 2.4 µM

Structure (SMILES): COc1cc(OC)c(-c2cn3ccc(N4CCN(c5ccccc5)CC4)cc3n2)cc1Cl [Example 282, 2-(5-chloro-2,4-dimethoxyphenyl)-7-(4-phenylpiperazin-1-yl)-imidazo[1,2-a]pyridine]
IC50 [1, 9]: 1.5 µM
IC50 [3]: 0.0349 µM
IC50 [4, 10]: 1.4 µM
IC50 [5, 11]: 1.5 µM
IC50 [6, 12]: 0.96 µM
IC50 [7, 13]: 1.4 µM

Structure (SMILES): COc1cc(OC)c(-c2cn3ccc(NC(=O)[C@@H]4CCCN4C)cc3n2)cc1Cl [Example 263, (S)—N-(2-(5-chloro-2,4-dimethoxyphenyl)imidazo[1,2-a]pyridin-7-yl)-1-methylpyrrolidine-2-carboxamide]
IC50 [1, 9]: 1.8 µM
IC50 [3]: 0.065 µM
IC50 [4, 10]: 1.8 µM
IC50 [5, 11]: 1.4 µM
IC50 [6, 12]: 1.7 µM
IC50 [7, 13]: 0.99 µM

Source: US10508109B2 (priority 2015, dated 2019)
